Reference: patent US20230181746A1, “BENZOYLHYDRAZIDE-DERIVED HDAC DEGRADERS AS THERAPEUTICS FOR TREATING CANCER AND OTHER HUMAN DISEASES” (University of Florida Research Foundation, Inc., priority 2020, published 2023)

Target: T1, HDAC6 (Homo sapiens, UniProt Q9UBN7)
T1 construct: endogenous in cells; host or cells: MDA-MB-468
T1 sequence (Q9UBN7 1-1215): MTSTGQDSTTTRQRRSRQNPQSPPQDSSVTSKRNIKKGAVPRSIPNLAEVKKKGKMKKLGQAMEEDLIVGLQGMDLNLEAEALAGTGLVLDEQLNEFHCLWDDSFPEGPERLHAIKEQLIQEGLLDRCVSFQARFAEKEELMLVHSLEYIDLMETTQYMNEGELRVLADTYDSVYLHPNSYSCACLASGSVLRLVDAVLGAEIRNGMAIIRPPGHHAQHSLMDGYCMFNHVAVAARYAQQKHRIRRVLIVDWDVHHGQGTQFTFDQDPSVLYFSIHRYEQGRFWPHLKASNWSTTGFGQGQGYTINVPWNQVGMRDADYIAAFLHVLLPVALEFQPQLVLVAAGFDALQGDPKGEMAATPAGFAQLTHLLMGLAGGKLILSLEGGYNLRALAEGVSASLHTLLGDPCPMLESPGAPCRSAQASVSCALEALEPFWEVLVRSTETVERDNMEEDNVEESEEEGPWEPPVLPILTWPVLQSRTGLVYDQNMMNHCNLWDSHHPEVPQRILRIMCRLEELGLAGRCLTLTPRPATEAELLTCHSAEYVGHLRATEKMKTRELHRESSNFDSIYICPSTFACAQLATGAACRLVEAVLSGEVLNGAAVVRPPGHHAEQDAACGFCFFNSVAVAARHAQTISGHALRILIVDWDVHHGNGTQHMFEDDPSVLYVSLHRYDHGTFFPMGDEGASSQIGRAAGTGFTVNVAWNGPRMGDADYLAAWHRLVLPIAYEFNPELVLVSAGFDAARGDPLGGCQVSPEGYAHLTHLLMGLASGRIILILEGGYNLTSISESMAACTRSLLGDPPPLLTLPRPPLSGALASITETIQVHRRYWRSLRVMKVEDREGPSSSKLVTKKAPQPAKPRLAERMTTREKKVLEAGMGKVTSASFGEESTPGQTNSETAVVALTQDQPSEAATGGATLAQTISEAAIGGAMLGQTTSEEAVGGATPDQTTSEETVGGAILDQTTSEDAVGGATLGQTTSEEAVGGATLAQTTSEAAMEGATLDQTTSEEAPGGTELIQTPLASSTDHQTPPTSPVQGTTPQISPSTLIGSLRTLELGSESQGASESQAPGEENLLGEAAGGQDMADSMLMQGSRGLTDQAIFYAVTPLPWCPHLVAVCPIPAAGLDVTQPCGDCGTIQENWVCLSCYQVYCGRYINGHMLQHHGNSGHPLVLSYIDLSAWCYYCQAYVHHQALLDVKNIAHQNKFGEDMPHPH
Assay: HDAC6 protein level in MDA-MB-468 cells, Western blot
Assay type: cell-based
Settings: 14 h
Procedure: FIG. 3A: Western blot showing HDAC protein levels in MDA-MB-468 cells treated with the indicated concentration of XZ9002 for 14 h. FIG. 3B: pretreatment with 1 μM MG132, or 10 μM VHL032 for 1 h blocked the degradation of HDAC3 by XZ9002 {125 nM}. […] NC: XZ9002-NC. FIG. 3C: time-dependent experiment in MDA-MB-468 cells after treatment with 125 nM XZ9002 at the indicated time points. FIG. 3D: MDA-MB-468 cells were incubated with 125 nM of XZ9002 for 14 h followed by drug washout, and incubation of the cells in drug-free medium for an additional time. Data are presented as representative figures of two independent experiments.
Cell lines were obtained from ATCC and subsequently authenticated. Cells were cultured with DMEM supplemented with 10% bovine calf serum, penicillin to 10 units/mL, and streptomycin to 10 μg/mL. For viability assays, 5,000 cells/well were seeded in 96-well plates. Compounds at a specified concentration or DMSO were added 24 h later. Viability assays were performed 72 h after compound addition using the CellTiter-Glo reagents (Promega). For colony formation assay, cells (˜1,000 cells/well) were seeded in a 24-well plate in quadruplicates. At 24 h after seeding, DMSO, XZ9002, or XZ9002-NC were added at a specified concentration. […]

- change in HDAC6 protein level: no significant changes
Structure (SMILES): CCCNNC(=O)c1ccc(-c2ccc(NC(=O)CCCCCCC(=O)N[C@H](C(=O)N3C[C@H](O)C[C@H]3C(=O)N[C@@H](C)c3ccc(-c4scnc4C)cc3)C(C)(C)C)cc2)cc1 [XZ9002, N^1—((S)-1-((2S,4R)-4-hydroxy-2-(((S)-1-(4-(4-methylthiazol-5-yl)phenyl)ethyl)carbamoyl)pyrrolidin-1-yl)-3,3-dimethyl-1-oxobutan-2-yl)-N^5-(4′-(2-propylhydrazine-1-carbonyl)-[1,1′-biphenyl]-4-yl)octanediamide]
